Like-named read-outs stand apart in the source and are kept apart here. Each block holds one compound with its values, some of them ahead of it.
Legend:
Type in all cases: cell-based
[1] = system: mixture of periodontal bacteria; test: short interval killing test (SIKT), total surviving flora
Text: (§1) The anti-microbial activity of the mouth rinse evaluated "in vitro" by mortality studies over short intervals of time (short interval killing test, SIKT) against a mixture of periodontal bacteria containing between 1.0*10^5 and 1.0*10^7 CFU ml of each strain. The total counts obtained in the surviving flora and those pertaining to each strain after one minute of contact are summarised in Tables 3 and 4. TABLA 3

P. intermedia = test: short interval killing test (SIKT), count per strain
Text: as §1

[2] = system: Peptostreptococcus micros; test: as above
Text: as §1

P. gingivalis = test: as above
Text: as §1

F. nucleatum = test: as above
Text: as §1

P.intermedia = test: minimum inhibitory concentration (MIC), method of diffusion in agar
Text: (§2) The anti-microbial activity of a certain number of active ingredients was obtained by study of the minimum inhibitory concentrations (MIC) of the respective agents (by the method of diffusion in agar) against bacteria representing periodontal disease.

A.actinomycetemcomitans = test: as above
Text: as §2

P.gingivalis = test: as above
Text: as §2

[3] = one minute of contact, 1.0*10^5 to 1.0*10^7 CFU ml of each strain, PBS = 100%
[4] = P. intermedia, one minute of contact, PBS = 100%
[5] = Peptostreptococcus micros, one minute of contact, PBS = 100%
[6] = P. gingivalis, one minute of contact, PBS = 100%
[7] = F. nucleatum, one minute of contact, PBS = 100%

Structure (SMILES): N=C(NCCCCCCNC(=N)NC(=N)Nc1ccc(Cl)cc1)NC(=N)Nc1ccc(Cl)cc1.O=C(O)[C@H](O)[C@@H](O)[C@H](O)[C@H](O)CO.O=C(O)[C@H](O)[C@@H](O)[C@H](O)[C@H](O)CO [CHX, 1,6-bis (N^5-p-chlorophenyl-N^1-diguanido)hexane digluconate]
Total CFU/ml recovered (%) at 1 minute [1, 3]: 25.55% | CFU/ml recovered from each strain (%) (P. intermedia; [4]): <0.56% | CFU/ml recovered from each strain (%) [2, 5]: 82.12% | CFU/ml recovered from each strain (%) (P. gingivalis; [6]): <0.81% | CFU/ml recovered from each strain (%) (F. nucleatum; [7]): 0.87%

Structure (SMILES): CCCCCCCCCCCCCCCC[n+]1ccccc1 [CPC, cetylpyridinium chloride]
Total CFU/ml recovered (%) at 1 minute [1]: 0.04% | CFU/ml recovered from each strain (%) (P. intermedia): 0.01% | CFU/ml recovered from each strain (%) [2]: 0.03% | CFU/ml recovered from each strain (%) (P. gingivalis): <0.01% | CFU/ml recovered from each strain (%) (F. nucleatum): 0.05%

Minimum inhibitory concentration (MIC, % concentration) (P.intermedia): 0.0009%
Structure (SMILES): [H]/N=C(\N/C(=N/[H])NCCCCCCNC(=N)NC(=N)Nc1ccc(Cl)cc1)Nc1ccc(Cl)cc1 [Chlorhexidine]
Minimum inhibitory concentration (A.actinomycetemcomitans): 0.004% | Minimum inhibitory concentration (%) (P.gingivalis): 0.002%

Structure (SMILES): O=C([O-])[C@H](O)[C@@H](O)[C@H](O)[C@H](O)CO.O=C([O-])[C@H](O)[C@@H](O)[C@H](O)[C@H](O)CO.[Cu+2] [Cu^++ gluconate]
Minimum inhibitory concentration (MIC, % concentration) (P.intermedia): 0.004% | Minimum inhibitory concentration (%) (P.gingivalis): 0.06%

Minimum inhibitory concentration (MIC, % concentration) (P.intermedia): 0.001%
Structure (SMILES): CCCCC(CC)CN1CN(CC(CC)CCCC)CC(C)(N)C1 (centres unmarked) [Hexetidine]
Minimum inhibitory concentration (A.actinomycetemcomitans): 0.09% | Minimum inhibitory concentration (%) (P.gingivalis): 0.001%

Structure (SMILES): Oc1cc(Cl)ccc1Oc1ccc(Cl)cc1Cl [Triclosan, 5-chloro-2-(2,4-dichlorophenoxy)-phenol]
Minimum inhibitory concentration (MIC, % concentration) (P.intermedia): 0.009% | Minimum inhibitory concentration (A.actinomycetemcomitans): 0.0006% | Minimum inhibitory concentration (%) (P.gingivalis): 0.004%

Structure (SMILES): O=S(=O)([O-])[O-].[Zn+2] [Zn^++, sulphate]
Minimum inhibitory concentration (MIC, % concentration) (P.intermedia): 0.5% | Minimum inhibitory concentration (A.actinomycetemcomitans): 0.1% | Minimum inhibitory concentration (%) (P.gingivalis): 0.5% | Total CFU/ml recovered (%) at 1 minute [1, 3]: 47.65% | CFU/ml recovered from each strain (%) (P. intermedia; [4]): 0.56% | CFU/ml recovered from each strain (%) [2, 5]: 54.5% | CFU/ml recovered from each strain (%) (P. gingivalis; [6]): 33.9% | CFU/ml recovered from each strain (%) (F. nucleatum; [7]): 40.9%

Source: patent publication EP0920857B1, “Oral composition for the treatment of halitosis” (DENTAID, S.A., priority 1997, dated 1999)
